Experimental data as given in article PMC12463105, “NSP7 Molecular Degrader Attenuates Coronaviral Infection Through the β‐TrCP1/FBXO5 Axis” (Advanced Science, 2025).

Columns and labels:
HCoV-OC43 = test system: T1, HCoV-OC43; test: microbe, parasite or virus in culture; set-up: HCoV-OC43 infection assay, reduction of viral infection; conditions: Betacoronavirus 1, OC43, read-out: OC43
T1 construct: ATCC VR-1558

SARS-CoV-2 NSP7-HiBiT = conditions: read-out: NSP7- HiBiT; reduction of NSP7-HiBiT signal; degrader

SMILES	IC50 (HCoV-OC43)	IC50 (SARS-CoV-2 NSP7-HiBiT)
CCSc1nsc(NC(=O)Nc2ccc(Br)c(C)c2)n1 [BC24878, 5-[3-(4-bromo-3-tolyl)ureido]-3-(ethylthio)-1,2,4-thiadiazole]	2.55 µM	3.8 µM
CCSc1nsc(NC(=O)NCc2ccc(C)cc2)n1 [BC24879, 3-(ethylthio)-5-{3-[(p-tolyl)methyl]ureido}-1,2,4-thiadiazole]	13.3 µM	27.6 µM
CCSc1nsc(NC(=O)Nc2ccc3c(c2)OCCO3)n1 [BC24880, 5-[3-(2,3-dihydro-1,4-benzodioxin-6-yl)ureido]-3-(ethylthio)-1,2,4-thiadiazole]	21.2 µM	33.1 µM
CCSc1nsc(NC(=O)NCCc2ccccc2)n1 [BC24881, 3-(ethylthio)-5-(3-phenethylureido)-1,2,4-thiadiazole]	31.9 µM	30 µM
CCSc1nsc(NC(=O)NCc2cccc(OC)c2)n1 [BC24883, 3-(ethylthio)-5-{3-[(m-methoxyphenyl)methyl]ureido}-1,2,4-thiadiazole]	67.8 µM	> 100 µM
CCSc1nsc(NC(=O)Nc2ccc(F)cc2F)n1 [BC24884, 5-[3-(2,4-difluorophenyl)ureido]-3-(ethylthio)-1,2,4-thiadiazole]	16.9 µM	27.6 µM
CCSc1nsc(NC(=O)NCc2ccco2)n1 [BC24885, 3-(ethylthio)-5-(3-furfurylureido)-1,2,4-thiadiazole]	> 100 µM	> 100 µM
CCSc1nsc(NC(=O)NCc2ccc(F)cc2)n1 [BC24886, 3-(ethylthio)-5-{3-[(p-fluorophenyl)methyl]ureido}-1,2,4-thiadiazole]	> 100 µM	> 100 µM
CCSc1nsc(NC(=O)NC[C@H]2CCCO2)n1 [BC24887, 3-(ethylthio)-5-(3-{[(R)-perhydro-2-furyl]methyl}ureido)-1,2,4-thiadiazole]	> 100 µM	> 100 µM
CCSc1nsc(NC(=O)Nc2cccc(SC)c2)n1 [BC24888, 3-(ethylthio)-5-{3-[m-(methylthio)phenyl]ureido}-1,2,4-thiadiazole]	5.27 µM	9.09 µM
CCSc1nsc(NC(=O)N[C@@H](C)C(=O)OC)n1 [BC24889, methyl (S)-2-{3-[3-(ethylthio)-1,2,4-thiadiazol-5-yl]ureido}propionate]	> 100 µM	> 100 µM
CCSc1nsc(NC(=O)NC(C)C)n1 [BC24891, 3-(ethylthio)-5-(3-isopropylureido)-1,2,4-thiadiazole]	> 100 µM	> 100 µM
CCSc1nsc(NC(=O)N[C@@H](C)CC)n1 [BC24892, 5-{3-[(S)-1-methylpropyl]ureido}-3-(ethylthio)-1,2,4-thiadiazole]	> 100 µM	> 100 µM
CCSc1nsc(NC(=O)NCCC(C)C)n1 [BC24893, 3-(ethylthio)-5-(3-isopentylureido)-1,2,4-thiadiazole]	13.7 µM	18.5 µM
CCSc1nsc(NC(=O)NC2CCCCC2)n1 [BC24894, 5-(3-cyclohexylureido)-3-(ethylthio)-1,2,4-thiadiazole]	17.5 µM	23.7 µM
CCSc1nsc(NC(=O)Nc2cccc(F)c2)n1 [BC24895, 3-(ethylthio)-5-[3-(m-fluorophenyl)ureido]-1,2,4-thiadiazole]	2.53 µM	8.87 µM

SMILES	IC50 (HCoV-OC43)	IC50 (SARS-CoV-2 NSP7-HiBiT)
CCSc1nsc(NC(=O)NCC(C)C)n1 [BC24896, 3-(ethylthio)-5-(3-isobutylureido)-1,2,4-thiadiazole]	29.9 µM	29.3 µM
CCOC(=O)CCNC(=O)Nc1nc(SCC)ns1 [BC24897, ethyl 3-{3-[3-(ethylthio)-1,2,4-thiadiazol-5-yl]ureido}propionate]	> 100 µM	> 100 µM
CCSc1nsc(NC(=O)NCCOC)n1 [BC24899, 3-(ethylthio)-5-[3-(2-methoxyethyl)ureido]-1,2,4-thiadiazole]	> 100 µM	> 100 µM
CCSc1nsc(NC(=O)NC(C)(C)C)n1 [BC24900, 5-(3-tert-butylureido)-3-(ethylthio)-1,2,4-thiadiazole]	> 100 µM	> 100 µM
CCOC(=O)[C@H](C)NC(=O)Nc1nc(SCC)ns1 [BC24902, ethyl (S)-2-{3-[3-(ethylthio)-1,2,4-thiadiazol-5-yl]ureido}propionate]	> 100 µM	> 100 µM
CCSc1nsc(NC(=O)NCc2cccc(F)c2)n1 [BC24904, 3-(ethylthio)-5-{3-[(m-fluorophenyl)methyl]ureido}-1,2,4-thiadiazole]	> 100 µM	> 100 µM
CCSc1nsc(NC(=O)Nc2c(C)cccc2C)n1 [BC24905, 3-(ethylthio)-5-[3-(2,6-xylyl)ureido]-1,2,4-thiadiazole]	15.8 µM	22.1 µM
CCSc1nsc(NC(=O)NCc2ccc(OC)cc2)n1 [BC24906, 3-(ethylthio)-5-{3-[(p-methoxyphenyl)methyl]ureido}-1,2,4-thiadiazole]	> 100 µM	> 100 µM
CCSc1nsc(NC(=O)Nc2cccc(F)c2C)n1 [BC24907, 3-(ethylthio)-5-[3-(3-fluoro-2-tolyl)ureido]-1,2,4-thiadiazole]	3.36 µM	9.85 µM
CCCCc1ccc(NC(=O)Nc2nc(SCC)ns2)cc1 [BC24908, 5-[3-(p-butylphenyl)ureido]-3-(ethylthio)-1,2,4-thiadiazole]	18.3 µM	30 µM
CCSc1nsc(NC(=O)Nc2cc(F)c(F)c(F)c2)n1 [BC24910, 3-(ethylthio)-5-[3-(3,4,5-trifluorophenyl)ureido]-1,2,4-thiadiazole]	0.42 µM	2.23 µM
CCSc1nsc(NC(=O)Nc2cccc(Cl)c2F)n1 [BC24911, 5-[3-(3-chloro-2-fluorophenyl)ureido]-3-(ethylthio)-1,2,4-thiadiazole]	8.13 µM	9.72 µM
CCSc1nsc(NC(=O)Nc2ccc(C(F)(F)F)cc2)n1 [BC24912, 3-(ethylthio)-5-{3-[p-(trifluoromethyl)phenyl]ureido}-1,2,4-thiadiazole]	0.672 µM	1.76 µM
CCOC(=O)C1CCC(CNC(=O)Nc2nc(SCC)ns2)CC1 (stereo not shown) [BC24913, ethyl 4-({3-[3-(ethylthio)-1,2,4-thiadiazol-5-yl]ureido}methyl)cyclohexanecarboxylate]	17.4 µM	> 100 µM
CCSc1nsc(NC(=O)Nc2ccc3c(c2)CCC3)n1 [BC24915, 3-(ethylthio)-5-[3-(5-indanyl)ureido]-1,2,4-thiadiazole]	17.4 µM	34 µM
CCSc1nsc(NC(=O)Nc2ccc(OC)cc2C)n1 [BC24916, 3-(ethylthio)-5-[3-(4-methoxy-2-tolyl)ureido]-1,2,4-thiadiazole]	17.2 µM	> 100 µM
